Series [1] has as its target T1, endogenous rodent PTH receptor (WT C57BL/6 mice) (Mus musculus, UniProt P41593).
T1 construct: WT mice expressing the endogenous rodent PTH receptor; endogenous in cells; host or cells: wild-type C57BL/6(n) mice, in vivo (bone and kidney)
T1 sequence (P41593 27-591): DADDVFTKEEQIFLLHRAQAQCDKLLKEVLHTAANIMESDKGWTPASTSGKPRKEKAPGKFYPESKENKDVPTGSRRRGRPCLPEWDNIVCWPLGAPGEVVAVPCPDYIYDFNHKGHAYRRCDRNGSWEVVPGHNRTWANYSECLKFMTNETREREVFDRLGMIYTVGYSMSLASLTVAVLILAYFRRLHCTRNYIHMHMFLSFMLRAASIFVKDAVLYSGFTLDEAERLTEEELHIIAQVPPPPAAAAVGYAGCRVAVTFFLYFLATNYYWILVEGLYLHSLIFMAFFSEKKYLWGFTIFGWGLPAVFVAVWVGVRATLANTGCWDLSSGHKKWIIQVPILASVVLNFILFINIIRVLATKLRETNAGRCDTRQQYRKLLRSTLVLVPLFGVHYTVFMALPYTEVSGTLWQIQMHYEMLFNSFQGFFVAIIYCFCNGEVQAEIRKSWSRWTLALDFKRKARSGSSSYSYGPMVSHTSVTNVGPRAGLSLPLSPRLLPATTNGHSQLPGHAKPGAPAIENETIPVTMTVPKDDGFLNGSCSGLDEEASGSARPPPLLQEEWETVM
Description: Blood ionized calcium (Ca++) response to PTH ligand analog injection in wild-type mice. It counts as in vivo. Conditions: 40 nmol/kg subcutaneous. The procedure: (§1) The utility of the hPTH1R-KI mice of the present disclosure as a model for predicting the behavior of different PTH and PTHrP analog peptides was evaluated. Ligand-induced PTH1R signaling in bone and kidney results in a rapid increase in blood levels of free ionized calcium (Ca^++) and a decrease in blood levels of inorganic phosphorus (Pi); changes that occur through the promotion of the release of Ca and Pi from bone mineral stores, the reabsorption of Ca from the renal filtrate, and a suppression of Pi reabsorption in the kidney. Thus, blood Ca^++ and Pi levels were measured in WT and hPTH1R-KI mice before and at times after injection of PTH ligands.
Blood ionized calcium (Ca^++) levels were measured in homozygous mice comprising a heterologous polynucleotide comprising human Parathyroid Hormone 1 Receptor (hPTH1R) exons 4 to 16 (hereinafter “hPTH1R-KI” mice), and WT C57BL/6(n) mice, at age 10 weeks. Mice were treated in accordance with the ethical guidelines adopted by the Massachusetts General Hospital (MGH). […]
Blood was collected from a ˜2 mm tail vein incision and placed into heparinized capillary tube (Multi-cap-S, Siemens Healthcare Diagnostics Inc, Catalog No. 05656514) just prior to injection (t=0), and at 1, 2, 4 and 8 hours after injection, then immediately analyzed for pH-adjusted ionized calcium using a Siemens RapidLab 348 Ca^2+/pH analyzer. […]

Series [2] deals with T2, human PTH1R (hPTH1R-KI mice) (Homo sapiens, UniProt Q03431).
T2 construct: Met593 (followed by a stop codon); expressed in transfected cells; host or cells: homozygous hPTH1R-KI C57BL/6 mice (knock-in at the mouse Pth1r locus), in vivo
T2 sequence (Q03431 23-593 E90Y/S91D/E92V/E93P/K95Y/E96A): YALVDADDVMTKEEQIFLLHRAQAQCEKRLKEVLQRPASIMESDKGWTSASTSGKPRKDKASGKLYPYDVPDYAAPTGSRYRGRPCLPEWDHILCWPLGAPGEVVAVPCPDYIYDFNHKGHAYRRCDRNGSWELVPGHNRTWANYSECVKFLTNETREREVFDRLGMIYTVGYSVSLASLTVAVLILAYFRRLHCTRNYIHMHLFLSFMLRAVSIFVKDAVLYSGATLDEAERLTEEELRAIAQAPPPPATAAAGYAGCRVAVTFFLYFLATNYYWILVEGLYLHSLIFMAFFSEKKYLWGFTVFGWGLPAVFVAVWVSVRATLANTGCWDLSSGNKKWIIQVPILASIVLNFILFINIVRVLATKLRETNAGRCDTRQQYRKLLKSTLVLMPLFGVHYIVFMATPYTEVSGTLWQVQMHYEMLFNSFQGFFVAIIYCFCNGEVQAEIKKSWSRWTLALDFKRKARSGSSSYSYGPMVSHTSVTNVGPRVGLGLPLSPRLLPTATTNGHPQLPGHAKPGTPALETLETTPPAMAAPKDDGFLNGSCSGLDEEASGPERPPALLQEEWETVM
As to the kind of experiment: Blood ionized calcium (Ca++) response to PTH ligand analog injection in hPTH1R-KI mice. The class given is in vivo, mouse. Conditions: 40 nmol/kg subcutaneous. The procedure: as §1
Blood ionized calcium (Ca^++) levels were measured in homozygous mice comprising a heterologous polynucleotide comprising human Parathyroid Hormone 1 Receptor (hPTH1R) exons 4 to 16 (hereinafter “hPTH1R-KI” mice), and WT C57BL/6(n) mice, at age 10 weeks. Mice were treated in accordance with the ethical guidelines adopted by the Massachusetts General Hospital (MGH). Mice were injected subcutaneously in the interscapular region with vehicle (5 mM citrate, 150 mM NaCl, 0.05% Tween80, pH 5.0), or vehicle containing either PTH(1-34), PTHrP(1-36) or abaloparatide, each peptide at a dose of 40 nmol/kg of body weight, with five animals per group.
Blood was collected from a ˜2 mm tail vein incision and placed into heparinized capillary tube (Multi-cap-S, Siemens Healthcare Diagnostics Inc, Catalog No. 05656514) just prior to injection (t=0), and at 1, 2, 4 and 8 hours after injection, then immediately analyzed for pH-adjusted ionized calcium using a Siemens RapidLab 348 Ca^2+/pH analyzer.
Data was processed using Microsoft Excel 2016 and GraphPad Prism 8.0. Data is represented as means+/−standard error, and statistical significance was assessed using a two-tailed Students t-test. Two replicate experiments were performed on separated days for each set of 20 hPTH1R-KI and 20 WT control mice n hPTH1R-KI mice. The replicate experiments gave essentially the same result for the two groups, and the data (n=10) were combined as means+SEM.

Series [3] deals with T2, human PTH1R (hPTH1R-KI mice). Description: Serum inorganic phosphorus (Pi) response to PTH ligand analog injection in hPTH1R-KI mice. The class given is in vivo. Conditions: 40 nmol/kg. The procedure:
To assess changes to blood Pi in response to PTH ligand injection, 10-week-old hPTH1R-KI and wild-type mice were injected with PTH(1-34), PTHrP(1-36), or Abaloparatide (see Example 13) each at a dose of 40 nmol/kg (n=5 mice per group). Tail vein blood was collected into a 1 mL microcentrifuge tubes containing 3 μL 0.5 mM EDTA on ice at t=0, 1, 2, 4, and 8 hours post-injection. The blood samples were centrifuged at 8,000 rpm at 4° C. for 15 minutes, and plasma supernatant was collected and frozen at −80° C. Plasma phosphate was analyzed using a colorimetric phosphate assay kit (AbCam. UK, Catalog No. ab65622).

The next series has as its target T3, PTH1R (WT mice) (Mus musculus, UniProt P41593).
T3 construct: WT mice expressing the endogenous rodent PTH receptor; endogenous in cells; host or cells: wild-type C57BL/6(n) mice, in vivo (bone and kidney)
T3 sequence (P41593 27-591): T1 sequence (P41593 27-591)
As to the kind of experiment: Antagonist response: blood calcium after co-injection with PTH(1-34) in WT mice. Particulars: 3-month-old WT mice, 40 nmol/kg subcutaneous. It counts as in vivo. The procedure:
(§2) Briefly, to assess the responses to antagonist PTH analogs, 3-month-old WT or hPTH1R-KI mice were injected subcutaneously with either (1) vehicle, (2) vehicle containing PTH(1-34) alone at 40 nmol/kg, or (3) PTH(1-34) at 40 nmol/kg together with an antagonist peptide, LA-PTH(7-36) or [Leu^11,dTrp^12,Trp^23,Tyr^36]-PTHrP(7-36), each antagonist at a dose of 500 nmol/kg (n=5 mice per group). Blood was collected from the tail vein and calcium was measured as described above in Example 13.

The target of series [4] is T2, human PTH1R (hPTH1R-KI mice). As to the kind of experiment: Antagonist response: blood calcium after co-injection with PTH(1-34) in hPTH1R-KI mice. The class given is in vivo, mouse. Conditions: 3-month-old hPTH1R-KI mice, 40 nmol/kg subcutaneous. The procedure:
as §2

The conditions of series [5]: cited from earlier work.
In series [6] the target is T4, RG conformation of the PTH1R (Homo sapiens, UniProt Q03431).
T4 sequence (Q03431 27-593): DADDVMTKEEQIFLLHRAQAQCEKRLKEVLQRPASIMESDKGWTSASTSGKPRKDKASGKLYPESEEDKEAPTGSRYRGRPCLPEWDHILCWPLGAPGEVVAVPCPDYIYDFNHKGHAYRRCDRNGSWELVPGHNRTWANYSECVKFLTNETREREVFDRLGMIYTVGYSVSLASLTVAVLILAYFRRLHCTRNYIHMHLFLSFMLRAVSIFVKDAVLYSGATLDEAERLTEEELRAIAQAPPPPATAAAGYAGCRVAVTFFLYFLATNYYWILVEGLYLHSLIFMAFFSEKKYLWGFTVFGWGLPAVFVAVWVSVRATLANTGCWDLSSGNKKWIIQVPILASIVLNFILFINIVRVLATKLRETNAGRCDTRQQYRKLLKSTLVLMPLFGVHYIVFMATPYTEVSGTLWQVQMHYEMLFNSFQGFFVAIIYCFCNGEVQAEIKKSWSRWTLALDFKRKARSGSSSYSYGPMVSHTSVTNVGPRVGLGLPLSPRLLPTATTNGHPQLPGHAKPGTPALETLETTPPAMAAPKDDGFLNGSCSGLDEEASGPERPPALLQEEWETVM
Conditions: versus R0 conformation; compared with teriparatide / PTH and PTHrP ligands; cited from earlier work.

The test system of series [7] is ovariectomy-induced osteopenic rats. Particulars: cited from earlier work.
The subject of series [8] is ovariectomy-induced osteopenic monkeys. Particulars: cited from earlier work.

Entries after “also recorded” stand apart in the source; their conditions may differ. Where two headings read alike, the source gives them in different places.

As to `CC[C@H](C)[C@H](NC(=O)[C@H](CCC(=O)O)NC(=O)[C@H](CO)NC(=O)[C@@H](NC(=O)[C@@H](N)CO)C(C)C)C(=O)N[C@@H](CCC(N)=O)C(=O)N[C@@H](CC(C)C)C(=O)N[C@@H](CCSC)C(=O)N[C@@H](Cc1cnc[nH]1)C(=O)N[C@@H](CC(N)=O)C(=O)N[C@@H](CC(C)C)C(=O)NCC(=O)N[C@@H](CCCCN)C(=O)N[C@@H](Cc1cnc[nH]1)C(=O)N[C@@H](CC(C)C)C(=O)N[C@@H](CC(N)=O)C(=O)N[C@@H](CO)C(=O)N[C@@H](CCSC)C(=O)N[C@@H](CCC(=O)O)C(=O)N[C@@H](CCCN=C(N)N)C(=O)N[C@H](C(=O)N[C@@H](CCC(=O)O)C(=O)N[C@@H](Cc1c[nH]c2ccccc12)C(=O)N[C@@H](CC(C)C)C(=O)N[C@@H](CCCN=C(N)N)C(=O)N[C@@H](CCCCN)C(=O)N[C@@H](CCCCN)C(=O)N[C@@H](CC(C)C)C(=O)N[C@@H](CCC(N)=O)C(=O)N[C@@H](CC(=O)O)C(=O)N[C@H](C(=O)N[C@@H](Cc1cnc[nH]1)C(=O)N[C@@H](CC(N)=O)C(=O)N[C@@H](Cc1ccccc1)C(=O)O)C(C)C)C(C)C` [PTH(1-34)], the “difference in calcemic response duration compared to the other two ligands” value in series [1] is “not seen”. Also, in series [2], the “duration of calcemic response” value is recorded as “more prolonged calcemic response” and the “blood Ca++ levels at 4 hours” value is listed as “remained elevated”. Moreover, in series [3], the phosphaturic response profile entry is recorded as “more prolonged activity in vivo” and the “serum Pi levels at 2 hours post-injection” value is recorded as “remained low”. In addition, the “blood calcium levels after PTH(1-34) alone” value on PTH1R (WT mice) was “expected rise in blood calcium levels”. In addition, the “blood calcium levels after PTH(1-34) alone” value in series [4] is on record as “expected rise in blood calcium levels”. In series [5] (previous analyses), the “rate of clearance from the blood” value is “comparable rates of clearance”.
PTHrP(1-36): in series [2], the “duration of calcemic response” value was “more a transient functional response” and the “blood Ca++ levels at 4 hours” value is “returned to baseline”.
“abaloparatide: synthetic 34-amino acid PTHrP(1-34)-based analogue, AVSEHQLLHDKGKSIQDLRRRELLEKLLXKLHTA, X is Aib (SEQ ID NO: 22)”: in [2], the “duration of calcemic response” value is on record as “more a transient functional response” and the “blood Ca++ levels at 4 hours” value is listed as “returned to baseline”. For the same compound, in series [3], the “serum Pi levels at 2 hours post-injection” value is recorded as “returned to near-vehicle control levels”. Moreover, the “binding selectivity for the RG conformation of PTH1R” value in [6] is on record as “more selectively than teriparatide; also recorded: greater selectivity”. Moreover, the “reversal of bone loss” value in [7] is “complete reversal of bone loss”. Besides, the “reversal of bone loss” value in series [8] was “complete reversal of bone loss”. In series [5] (in vivo), the “rate of clearance from the blood” value is recorded as “comparable rates of clearance”.

These data come from patent US20240374761A1, “ANIMAL MODEL HAVING HOMOLOGOUS RECOMBINATION OF MOUSE PTH1 RECEPTOR” (RADIUS PHARMACEUTICALS, INC., priority 2021, published 2024).
